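1) Cells in 96-well plates. 2) Compound, 48 h, 5 concentrations. 3) Linear interpolation between surrounding doses. 4) Unreached endpoint = highest concentration. At the GI50, growth is halved. TGI: concentration producing complete growth inhibition.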
Legend:
Test in all cases: DTP human tumour cell line panel, 48 h
CAKI-1 renal = system: CAKI-1 renal
MOLT-4 leukemia = system: MOLT-4 leukemia
SF-539 CNS = system: SF-539 CNS
MDA-MB-435 = system: MDA-MB-435
HCC-2998 colon = system: HCC-2998 colon
HL-60(TB) leukemia = system: HL-60(TB) leukemia
TK-10 renal = system: TK-10 renal
COLO 205 colon = system: COLO 205 colon
ACHN renal = system: ACHN renal
PC-3 prostate = system: PC-3 prostate

Structure (SMILES)	GI50 (CAKI-1 renal) [µM]	TGI (CAKI-1 renal) [µM]	GI50 (MOLT-4 leukemia) [µM]	TGI (MOLT-4 leukemia) [µM]	GI50 (SF-539 CNS) [µM]	TGI (SF-539 CNS) [µM]	GI50 (MDA-MB-435) [µM]	TGI (MDA-MB-435) [µM]	GI50 (HCC-2998 colon) [µM]	TGI (HCC-2998 colon) [µM]	GI50 (HL-60(TB) leukemia) [µM]	TGI (HL-60(TB) leukemia) [µM]	GI50 (TK-10 renal) [µM]	TGI (TK-10 renal) [µM]	GI50 (COLO 205 colon) [µM]	TGI (COLO 205 colon) [µM]	GI50 (ACHN renal) [µM]	TGI (ACHN renal) [µM]	GI50 (PC-3 prostate) [µM]	TGI (PC-3 prostate) [µM]
CC1(C)N=C(N)N=C(N)N1c1ccc(F)c(C(F)(F)F)c1	4.92	> 93.1	0.727	> 100	0.71	> 100	0.239	> 100	1.85	> 100	0.438	> 100	3.4	> 100	5.11	> 100	2.28	> 100	0.256	> 100
Cn1c(COC(=O)N2CCCCC2)nc2c(N3CCOCC3)nc(-c3ccccc3)nc21	0.354	1.51	0.353	2	1.33	2.61	0.58	1.86	1.58	3.04	0.592	2.44	1.35	2.66	1.03	2.63	0.352	1.29	0.666	2.15
CCC[C@H](N[C@@H]1CCc2cc(F)cc(F)c2C1)C(=O)Nc1cn(C(C)(C)CNCC(C)(C)C)cn1	5.94	29	8.03	> 68.1	16.7	34.6	17	53.2	17.8	> 81.1	16.3	43.4	21.8	72.7	12.5	26.9	22.7	> 96.7	7.63	79.2
C#C[C@]1(O)CC[C@H]2[C@@H]3CC=C4c5sc(N=C(N)N)nc5CC[C@]4(C)[C@H]3CC[C@@]21C	0.615	1.82	0.297	1.01	0.233	1.12	0.7	2.01	1.59	3.1	0.425	1.92	1.85	3.44	0.667	2.24	0.971	2.21	0.475	1.8
C(=C1c2ccccc2-c2ccccc21)c1ccccn1	3.23	19.6	11.8	> 100	11.7	50.2	1.72	3.69	13	46.3	4.52	38.5	19	57.3	8.56	29.5	26.6	> 100	22.7	> 100
ClCCN(CCCl)c1ccc(-n2cnc3c(Cl)ncnc32)cc1	0.697	2.05	2.99	7.84	5.23	19	2.04	4.12	1.84	3.41	2.5	6.58	13	81.9	5.74	19.1	1.84	3.54	4.38	18.2
CC(C)(C)c1ccc([I+]c2ccc(C(C)(C)C)cc2)cc1	8.3	20.8	1.96	7.79	2.08	10.2	0.948	3.01	1.78	9.09	0.55	2.46	2.62	9.75	1.06	2.8	3.25	12.2	1.17	6.05
COC(=O)C1=Nc2c(C)nn(-c3ccccc3)c2N=C(c2ccc(C)cc2)C1	–	> 10	–	> 10	–	> 10	–	> 10	–	> 10	–	> 10	–	> 10	–	> 10	–	> 10	–	> 10
O=C1Nc2ccccc2C1Cc1ccccc1 (stereo not given)	–	> 100	–	> 100	–	> 100	–	> 100	–	> 100	–	> 100	–	> 100	–	> 100	–	> 100	–	> 100
COC(CCP(=O)(c1ccccc1)c1ccccc1)(C(=O)c1ccccc1)c1ccccc1 (stereo not given)	2.95	12.2	2.06	> 100	10.2	21.9	3.64	15	4.11	17.9	2.29	> 100	2.94	14.1	1.64	3.82	4.98	17	2.15	12.3
CC(ONC(=O)c1cc(C(F)(F)F)cc(C(F)(F)F)c1)C(=O)Nc1ccc(Cl)cc1 (stereo not given)	20.3	> 76.6	2.65	22.3	4.82	19	4.39	29.7	4.16	17	3.86	28.3	5.42	> 75.1	5.32	25.8	4.55	50.6	3.63	18.4
COc1cc(-c2[nH]ccc2Cl)oc1C1=C2N=C3C=C2C(C(C)C)C1CCCCCCCC3 (stereo not given)	–	5.27	–	1.74	–	2.46	–	1.4	–	1.77	–	0.943	–	5.19	–	1.87	–	3.12	–	1.37
C=C=C(C)[Si](C)(C)C	–	> 100	–	> 100	–	> 100	–	> 100	–	> 100	–	> 100	–	> 100	–	> 100	–	> 100	–	> 100
COc1ccc(C(O)CNC(=O)c2ccccc2)cc1 (stereo not given)	–	> 100	–	> 100	–	> 100	–	> 100	–	> 100	–	> 100	–	> 100	–	> 100	–	> 100	–	> 100
